The source of these data is ChEMBL document CHEMBL5137039, “Therapeutic potentials and structure-activity relationship of 1,3-benzodioxole N-carbamothioyl carboxamide derivatives as selective and potent antagonists of P2X4 and P2X7 receptors” (Eur J Med Chem, 2022).

The term IC50 denotes the concentration needed to halve the response being measured.

For one data set, the system named is HEK293. Briefly: Cytotoxicity against HEK293 cells assessed as reduction in cell viability at 50 uM after 24 hrs by MTT assay relative to control. The format is toxicity, cell-based. The note with it: human, hek293, 24 h.
The nature of data set [1]: Cytotoxicity against human 1321N1 cells assessed as reduction in cell viability at 50 uM after 24 hrs by MTT assay relative to control. The format is toxicity, cell-based. As to conditions: 1321n1, 24 h. A general note: Formazan colour is commonly taken as a measure of viable cells.
The target of a further data set is T1, P2X purinoceptor 4 (Homo sapiens, UniProt Q99571).
T1 sequence (Q99571 whole entry): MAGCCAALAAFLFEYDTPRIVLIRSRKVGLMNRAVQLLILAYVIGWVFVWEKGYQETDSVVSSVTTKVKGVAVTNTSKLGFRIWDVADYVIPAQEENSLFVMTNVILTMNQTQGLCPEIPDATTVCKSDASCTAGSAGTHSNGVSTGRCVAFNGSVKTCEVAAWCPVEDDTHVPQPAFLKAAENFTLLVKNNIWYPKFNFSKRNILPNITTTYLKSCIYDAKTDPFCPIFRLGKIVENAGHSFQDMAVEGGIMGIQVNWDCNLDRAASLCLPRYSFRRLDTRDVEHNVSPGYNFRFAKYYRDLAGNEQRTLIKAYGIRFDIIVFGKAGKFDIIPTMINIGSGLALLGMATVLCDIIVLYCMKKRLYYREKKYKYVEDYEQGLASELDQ
Briefly: Antagonist activity against human P2X4R stably transfected in human 1321N1 cells incubated for 30 mins by Fura-2 AM staining based calcium influx assay. In kind it is cell-based.

Data set [2] deals with T2, P2X purinoceptor 7 (Homo sapiens, UniProt Q99572).
T2 sequence (Q99572 whole entry): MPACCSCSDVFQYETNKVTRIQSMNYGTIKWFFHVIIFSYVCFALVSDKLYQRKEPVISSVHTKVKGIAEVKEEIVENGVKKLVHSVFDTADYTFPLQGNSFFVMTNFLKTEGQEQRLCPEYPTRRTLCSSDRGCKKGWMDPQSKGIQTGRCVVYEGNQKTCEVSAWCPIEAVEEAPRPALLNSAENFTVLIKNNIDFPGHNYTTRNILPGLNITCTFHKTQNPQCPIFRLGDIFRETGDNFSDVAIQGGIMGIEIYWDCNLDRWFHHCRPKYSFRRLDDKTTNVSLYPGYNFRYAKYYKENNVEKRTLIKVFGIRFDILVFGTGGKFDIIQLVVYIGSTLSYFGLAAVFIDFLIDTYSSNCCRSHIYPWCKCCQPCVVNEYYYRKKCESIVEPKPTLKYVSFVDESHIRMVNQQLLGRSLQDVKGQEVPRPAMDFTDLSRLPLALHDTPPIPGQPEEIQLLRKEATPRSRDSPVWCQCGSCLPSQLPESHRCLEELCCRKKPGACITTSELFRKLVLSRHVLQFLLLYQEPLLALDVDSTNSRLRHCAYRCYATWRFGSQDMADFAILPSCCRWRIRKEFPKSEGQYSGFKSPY
Description: Antagonist activity against human P2X7R stably transfected in human 1321N1 cells assessed as reduction in BzATP-induced activity incubated for 5 to 10 mins by EtBr staining based fluorescence assay. The format is cell-based.

In a further data set the target is P2X purinoceptor 5 (Homo sapiens, UniProt Q93086). Description: Antagonist activity against human P2X5R stably transfected in human 1321N1 cells at 50 uM incubated for 30 mins by Fura-2 AM staining based calcium influx assay relative to control. Also on record: scale not given: the % may be the effect or the level left. The format is cell-based.
Chain of P2X purinoceptor 5 (Q93086 whole entry): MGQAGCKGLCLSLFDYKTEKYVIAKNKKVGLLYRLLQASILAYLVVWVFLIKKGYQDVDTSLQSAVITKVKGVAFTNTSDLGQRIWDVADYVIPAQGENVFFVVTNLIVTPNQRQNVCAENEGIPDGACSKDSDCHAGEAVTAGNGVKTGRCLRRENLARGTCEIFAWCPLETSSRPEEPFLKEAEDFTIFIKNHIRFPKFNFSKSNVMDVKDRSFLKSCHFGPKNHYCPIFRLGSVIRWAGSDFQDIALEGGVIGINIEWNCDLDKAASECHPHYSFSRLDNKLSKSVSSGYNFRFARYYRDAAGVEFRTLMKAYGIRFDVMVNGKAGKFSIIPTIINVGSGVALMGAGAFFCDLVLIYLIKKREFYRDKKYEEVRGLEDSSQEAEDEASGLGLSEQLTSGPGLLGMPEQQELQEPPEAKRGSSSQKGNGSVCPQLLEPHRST
The target of data set [3] is T2, P2X purinoceptor 7. Description: Antagonist activity against human P2X7R stably transfected in human 1321N1 cells incubated for 30 mins by Fura-2 AM staining based calcium influx assay. The format is cell-based.
Data set [4] addresses T3, P2X purinoceptor 2 (Homo sapiens) (UniProt Q9UBL9).
T3 sequence (whole entry): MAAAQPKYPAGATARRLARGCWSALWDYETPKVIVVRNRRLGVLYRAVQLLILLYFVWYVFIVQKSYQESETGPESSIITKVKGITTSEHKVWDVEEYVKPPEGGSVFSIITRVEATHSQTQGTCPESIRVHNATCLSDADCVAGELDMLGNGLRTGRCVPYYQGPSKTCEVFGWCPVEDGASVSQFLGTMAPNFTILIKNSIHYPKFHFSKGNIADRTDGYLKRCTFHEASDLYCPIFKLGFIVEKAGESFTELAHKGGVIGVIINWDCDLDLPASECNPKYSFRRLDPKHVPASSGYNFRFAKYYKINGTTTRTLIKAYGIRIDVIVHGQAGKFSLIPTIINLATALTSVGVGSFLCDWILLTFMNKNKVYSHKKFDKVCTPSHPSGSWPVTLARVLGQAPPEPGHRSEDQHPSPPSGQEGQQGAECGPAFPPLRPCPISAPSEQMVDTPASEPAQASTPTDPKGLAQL
Briefly: Antagonist activity against human P2X2R stably transfected in human 1321N1 cells at 50 uM incubated for 30 mins by Fura-2 AM staining based calcium influx assay relative to control. The format is cell-based. On the set-up: scale not given: the % may be the effect or the level left.

The next data set relates to HeLa. Description: Cytotoxicity against human HeLa cells assessed as reduction in cell viability at 50 uM after 24 hrs by MTT assay relative to control. The format is toxicity, cell-based.
Data set [5] concerns the target T4, P2X purinoceptor 4 (Homo sapiens) (UniProt Q99571).
T4 sequence (whole entry): T1 sequence (Q99571 whole entry)
Briefly: Antagonist activity against human P2X4R stably transfected in human 1321N1 cells at 50 uM incubated for 30 mins by Fura-2 AM staining based calcium influx assay relative to control. In kind it is cell-based. Also on record: scale not given: the % may be the effect or the level left.

Data set [6] concerns the target T5, P2X purinoceptor 7 (Homo sapiens) (UniProt Q99572).
T5 sequence (whole entry): T2 sequence (Q99572 whole entry)
Description: Antagonist activity against human P2X7R stably transfected in human 1321N1 cells at 50 uM incubated for 30 mins by Fura-2 AM staining based calcium influx assay relative to control. In kind it is cell-based. On the set-up: scale not given: the % may be the effect or the level left.

Structures are written as SMILES.

With `NS(=O)(=O)c1ccc(CCNC(=S)NC(=O)c2ccc3c(c2)OCO3)cc1`, the Activity is 5.77% in the data set on HEK293; 5.81% in data set [1]; 32% at P2X purinoceptor 5; 33% in data set [4]; 4.26% in the data set on HeLa. For the same compound, the concentration for half-maximal inhibition (IC50) worked out at 1050 nM on P2X purinoceptor 4, 47 nM on P2X purinoceptor 7 [2] and 45 nM on P2X purinoceptor 7 [3].

In the case of `O=C(NC(=S)Nc1cc(Br)cc(C(F)(F)F)c1)c1ccc2c(c1)OCO2`, the Activity was 4.48% in the data set with HEK293; 3.34% in data set [1]; 17% at P2X purinoceptor 5; 22% in [4]; 5.59% in the data set with HeLa. Also, the IC50 was 18200 nM on P2X purinoceptor 4 and 1250 nM on P2X purinoceptor 7 [3].

For `COc1cccc(NC(=S)NC(=O)c2ccc3c(c2)OCO3)c1`, the Activity was 19% in data set [5]; 1.95% in the data set on HEK293; 4.15% in data set [1]; 25% on P2X purinoceptor 5; 33% in data set [6]; 22% in data set [4]. The Activity with HeLa is given as 4.18%.

Regarding `CC(C)c1cc(Br)c(NC(=O)Nc2cccnc2)c(Br)c1`, the Activity in the data set on HEK293 amounted to 25.19%; in data set [1], 16.7%; in [6] (filed as antagonist), 45%; in the data set on HeLa it was 14.81%.

Turning to `NS(=O)(=O)c1cccc(NC(=S)NC(=O)c2ccc3c(c2)OCO3)c1`, the Activity was 4.19% in the data set with HEK293; 6.41% in [1]; 23% on P2X purinoceptor 5; 17% in data set [4]; 2.52% with HeLa. Besides, the half-inhibitory concentration (IC50) worked out at 2170 nM on P2X purinoceptor 4, 173 nM at P2X purinoceptor 7 [2] and 110 nM on P2X purinoceptor 7 [3].

Consider `O=C(O)c1ccc2c(c1)OCO2`, for which the Activity in data set [5] was 29%; on P2X purinoceptor 5, 10%; in [4], 21%.

Consider `O=C(NC(=S)Nc1cc(Cl)c(O)c(Cl)c1)c1ccc2c(c1)OCO2`, for which the IC50 on P2X purinoceptor 4 is 7640 nM; at P2X purinoceptor 7 [3], 1640 nM.

Take `Cc1cc(Br)ccc1NC(=S)NC(=O)c1ccc2c(c1)OCO2`: the Activity was determined as 3.38% in the data set on HEK293; 7.09% in data set [1]; 25% on P2X purinoceptor 5; 34% in [6]; 18% in [4]; 1.64% with HeLa. The IC50 on P2X purinoceptor 4 is 14300 nM.

With `COc1ccc(NC(=S)NC(=O)c2ccc3c(c2)OCO3)cc1`, the Activity in data set [5] (filed as antagonist) came to 44%; in the data set with HEK293, 7.44%; in data set [1], 3.32%; on P2X purinoceptor 5 it was 12%; in [6] it was 36%; in data set [4], 22%. For the same compound, in the data set with HeLa, the Activity was determined as 1.38%.

As for `COc1ccccc1NC(=S)NC(=O)c1ccc2c(c1)OCO2`, the Activity with HEK293 came out at 4.6%; in data set [1], 5.41%; at P2X purinoceptor 5, 26%; in data set [6] it was 38%; in data set [4], 39%; with HeLa it was 1.7%. Also, at P2X purinoceptor 4, the half-inhibitory concentration (IC50) was 3670 nM.

On to `CC(C)c1ccc(NC(=S)NC(=O)c2ccc3c(c2)OCO3)c(Br)c1`, for which the Activity in the data set on HEK293 is 3.73%; in data set [1], 3.83%; on P2X purinoceptor 5, 27%; in data set [4], 35%; in the data set on HeLa, 4.53%. Besides, the half-maximal inhibitory concentration (IC50) on P2X purinoceptor 4 amounted to 39 nM; on P2X purinoceptor 7 [3], 13100 nM.

Turning to `O=C(NC(=S)Nc1ccccc1O)c1ccc2c(c1)OCO2`, the 50% inhibitory concentration (IC50) at P2X purinoceptor 4 amounted to 2160 nM.

As to `Cc1nc(/N=N/c2ccc(S(=O)(=O)O)cc2S(=O)(=O)O)c(COP(=O)(O)O)c(C=O)c1O`, the Activity with HEK293 was determined as 46.58%; in data set [1] it was 12.41%; with HeLa, 20.43%.
